IC50 data for ten molecules are collected here from patent US12419873B2, “Use of JAK inhibitors in preparation of drugs for treating JAK kinase-related diseases” (ZHUHAI UNITED LABORATORIES CO., LTD., priority 2020, dated 2025).

A word on the IC50: it is the concentration needed to halve the response being measured.

Assay [1] has as its target JAK2 (Homo sapiens (Human), UniProt O60674). In words: In vitro activity test of JAK2 kinase. The note with it: read-out: JAK2 (IC50).
Assay [2] addresses JAK3 (Homo sapiens (Human), UniProt P52333). Briefly: In vitro activity test of JAK3 kinase. The format is biochemical. On the procedure: (§1) Recombinant human JAK1, JAK2, JAK3, TyK2 protease, main instruments and reagents were provided by Eurofins in the UK
(§2) All compounds were prepared into a 100% DMSO solution and reached 50 times the final determined concentration. The test compound was diluted by 3 times the concentration gradient, and the final concentration was 10 μM to 0.001 μM, 9 concentrations in total, and the content of DMSO in the detection reaction was 2%. The working stock solution of the compound was added to a determination hole as the first component of the reaction, and then the remaining components were added according to the detailed scheme determination below.
(§3) Mg/ATP mixture was added to start the reaction. After incubation at room temperature for 40 minutes, 0.5% phosphoric acid was added to stop the reaction.

Assay [3] deals with JAK1 (Homo sapiens (Human), UniProt P23458). Briefly: In vitro activity test of JAK1 kinase. The format is biochemical. Here is the method:
as §1, §2, §3

The target in assay [4] is TYK2 (Homo sapiens (Human), UniProt P29597). In words: In vitro activity test of TYK2 kinase. The format is biochemical. Here is the method:
as §1, §2, §3

A value given as a limit tells only on which side of the number the result lay.

Sequence of JAK3 (P52333 whole entry): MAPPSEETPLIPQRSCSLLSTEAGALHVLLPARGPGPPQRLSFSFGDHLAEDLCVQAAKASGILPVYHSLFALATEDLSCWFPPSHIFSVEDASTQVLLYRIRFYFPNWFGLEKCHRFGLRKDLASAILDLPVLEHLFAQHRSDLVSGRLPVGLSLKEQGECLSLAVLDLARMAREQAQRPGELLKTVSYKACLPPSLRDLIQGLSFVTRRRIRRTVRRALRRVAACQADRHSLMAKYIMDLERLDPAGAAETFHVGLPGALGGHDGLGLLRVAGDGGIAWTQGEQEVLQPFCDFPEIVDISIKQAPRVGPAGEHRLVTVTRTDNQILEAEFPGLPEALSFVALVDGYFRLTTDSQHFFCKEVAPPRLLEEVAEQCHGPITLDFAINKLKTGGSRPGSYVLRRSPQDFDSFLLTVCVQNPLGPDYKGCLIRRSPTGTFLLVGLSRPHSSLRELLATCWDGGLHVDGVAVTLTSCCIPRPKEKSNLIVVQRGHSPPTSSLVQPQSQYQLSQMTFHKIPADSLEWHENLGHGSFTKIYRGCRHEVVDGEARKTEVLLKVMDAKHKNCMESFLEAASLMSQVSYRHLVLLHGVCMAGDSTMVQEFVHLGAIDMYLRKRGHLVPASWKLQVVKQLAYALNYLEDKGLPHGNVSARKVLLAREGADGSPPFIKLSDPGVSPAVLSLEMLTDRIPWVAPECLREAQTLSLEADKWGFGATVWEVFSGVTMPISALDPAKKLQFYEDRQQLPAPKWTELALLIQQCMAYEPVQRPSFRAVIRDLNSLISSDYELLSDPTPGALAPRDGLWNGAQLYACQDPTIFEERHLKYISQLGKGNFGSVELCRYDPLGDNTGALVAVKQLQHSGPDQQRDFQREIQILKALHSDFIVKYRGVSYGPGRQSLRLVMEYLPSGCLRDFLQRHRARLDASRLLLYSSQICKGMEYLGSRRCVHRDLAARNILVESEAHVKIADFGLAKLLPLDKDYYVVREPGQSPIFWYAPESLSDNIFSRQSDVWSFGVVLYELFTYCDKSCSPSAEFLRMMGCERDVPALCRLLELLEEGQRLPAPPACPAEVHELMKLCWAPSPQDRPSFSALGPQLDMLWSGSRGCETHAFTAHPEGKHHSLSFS
Sequence of JAK1 (P23458 whole entry): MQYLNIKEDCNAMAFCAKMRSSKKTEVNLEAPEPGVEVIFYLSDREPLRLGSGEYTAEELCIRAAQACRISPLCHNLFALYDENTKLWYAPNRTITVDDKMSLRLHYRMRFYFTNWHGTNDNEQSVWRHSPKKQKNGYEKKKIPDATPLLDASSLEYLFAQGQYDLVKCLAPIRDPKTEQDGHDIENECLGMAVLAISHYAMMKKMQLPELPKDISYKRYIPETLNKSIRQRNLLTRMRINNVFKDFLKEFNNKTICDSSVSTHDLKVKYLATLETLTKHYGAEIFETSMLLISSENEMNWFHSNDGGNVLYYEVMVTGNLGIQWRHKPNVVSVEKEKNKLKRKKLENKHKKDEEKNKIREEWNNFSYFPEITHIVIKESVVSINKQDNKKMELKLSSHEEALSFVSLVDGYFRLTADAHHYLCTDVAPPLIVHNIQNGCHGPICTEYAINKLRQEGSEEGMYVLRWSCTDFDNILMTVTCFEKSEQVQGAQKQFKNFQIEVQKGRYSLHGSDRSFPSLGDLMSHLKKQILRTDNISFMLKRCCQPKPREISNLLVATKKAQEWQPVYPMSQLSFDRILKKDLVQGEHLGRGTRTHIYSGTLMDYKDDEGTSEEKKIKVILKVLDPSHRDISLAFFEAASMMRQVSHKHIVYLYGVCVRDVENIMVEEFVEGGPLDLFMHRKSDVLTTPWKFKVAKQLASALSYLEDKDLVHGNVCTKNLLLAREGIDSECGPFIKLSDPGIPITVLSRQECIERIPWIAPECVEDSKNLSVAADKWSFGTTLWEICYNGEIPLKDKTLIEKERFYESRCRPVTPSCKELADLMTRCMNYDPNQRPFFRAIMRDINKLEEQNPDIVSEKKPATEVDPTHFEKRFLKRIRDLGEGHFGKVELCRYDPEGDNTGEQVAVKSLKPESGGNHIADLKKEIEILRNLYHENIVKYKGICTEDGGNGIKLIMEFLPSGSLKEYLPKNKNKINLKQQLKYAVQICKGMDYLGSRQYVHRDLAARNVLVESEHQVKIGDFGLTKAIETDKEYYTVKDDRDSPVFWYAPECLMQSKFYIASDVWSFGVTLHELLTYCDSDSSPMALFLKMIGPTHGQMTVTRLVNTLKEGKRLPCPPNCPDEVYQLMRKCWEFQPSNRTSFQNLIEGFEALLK
Sequence of TYK2 (P29597 whole entry): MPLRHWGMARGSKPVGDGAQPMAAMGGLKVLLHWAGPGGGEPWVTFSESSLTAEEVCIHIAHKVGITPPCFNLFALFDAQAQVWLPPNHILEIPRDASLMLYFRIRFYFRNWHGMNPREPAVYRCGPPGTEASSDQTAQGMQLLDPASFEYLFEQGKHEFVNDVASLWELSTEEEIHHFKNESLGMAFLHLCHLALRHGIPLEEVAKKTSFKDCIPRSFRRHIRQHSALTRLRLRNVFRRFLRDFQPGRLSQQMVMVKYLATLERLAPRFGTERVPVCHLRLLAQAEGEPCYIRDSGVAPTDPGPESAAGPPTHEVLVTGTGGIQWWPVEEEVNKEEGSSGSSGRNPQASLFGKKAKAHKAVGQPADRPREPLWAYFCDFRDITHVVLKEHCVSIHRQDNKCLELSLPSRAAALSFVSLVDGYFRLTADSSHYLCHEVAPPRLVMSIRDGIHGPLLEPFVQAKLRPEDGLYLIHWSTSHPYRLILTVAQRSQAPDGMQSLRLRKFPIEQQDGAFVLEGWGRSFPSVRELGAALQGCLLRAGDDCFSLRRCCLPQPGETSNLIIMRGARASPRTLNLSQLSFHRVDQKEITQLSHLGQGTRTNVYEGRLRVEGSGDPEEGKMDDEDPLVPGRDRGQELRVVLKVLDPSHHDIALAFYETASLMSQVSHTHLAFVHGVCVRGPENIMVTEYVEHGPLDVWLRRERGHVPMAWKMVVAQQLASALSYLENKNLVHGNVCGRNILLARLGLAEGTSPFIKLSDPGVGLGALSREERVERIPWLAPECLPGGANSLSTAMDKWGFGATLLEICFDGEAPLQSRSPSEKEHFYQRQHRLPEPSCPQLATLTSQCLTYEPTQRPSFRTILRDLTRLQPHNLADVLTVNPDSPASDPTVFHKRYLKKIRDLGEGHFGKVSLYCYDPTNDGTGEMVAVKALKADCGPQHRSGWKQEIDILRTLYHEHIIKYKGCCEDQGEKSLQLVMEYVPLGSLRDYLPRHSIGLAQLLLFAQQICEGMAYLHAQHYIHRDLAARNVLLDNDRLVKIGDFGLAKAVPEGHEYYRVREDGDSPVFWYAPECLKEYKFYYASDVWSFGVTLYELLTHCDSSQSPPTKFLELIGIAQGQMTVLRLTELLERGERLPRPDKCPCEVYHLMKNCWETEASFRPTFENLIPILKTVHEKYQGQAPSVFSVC
Sequence of JAK2 (O60674 whole entry): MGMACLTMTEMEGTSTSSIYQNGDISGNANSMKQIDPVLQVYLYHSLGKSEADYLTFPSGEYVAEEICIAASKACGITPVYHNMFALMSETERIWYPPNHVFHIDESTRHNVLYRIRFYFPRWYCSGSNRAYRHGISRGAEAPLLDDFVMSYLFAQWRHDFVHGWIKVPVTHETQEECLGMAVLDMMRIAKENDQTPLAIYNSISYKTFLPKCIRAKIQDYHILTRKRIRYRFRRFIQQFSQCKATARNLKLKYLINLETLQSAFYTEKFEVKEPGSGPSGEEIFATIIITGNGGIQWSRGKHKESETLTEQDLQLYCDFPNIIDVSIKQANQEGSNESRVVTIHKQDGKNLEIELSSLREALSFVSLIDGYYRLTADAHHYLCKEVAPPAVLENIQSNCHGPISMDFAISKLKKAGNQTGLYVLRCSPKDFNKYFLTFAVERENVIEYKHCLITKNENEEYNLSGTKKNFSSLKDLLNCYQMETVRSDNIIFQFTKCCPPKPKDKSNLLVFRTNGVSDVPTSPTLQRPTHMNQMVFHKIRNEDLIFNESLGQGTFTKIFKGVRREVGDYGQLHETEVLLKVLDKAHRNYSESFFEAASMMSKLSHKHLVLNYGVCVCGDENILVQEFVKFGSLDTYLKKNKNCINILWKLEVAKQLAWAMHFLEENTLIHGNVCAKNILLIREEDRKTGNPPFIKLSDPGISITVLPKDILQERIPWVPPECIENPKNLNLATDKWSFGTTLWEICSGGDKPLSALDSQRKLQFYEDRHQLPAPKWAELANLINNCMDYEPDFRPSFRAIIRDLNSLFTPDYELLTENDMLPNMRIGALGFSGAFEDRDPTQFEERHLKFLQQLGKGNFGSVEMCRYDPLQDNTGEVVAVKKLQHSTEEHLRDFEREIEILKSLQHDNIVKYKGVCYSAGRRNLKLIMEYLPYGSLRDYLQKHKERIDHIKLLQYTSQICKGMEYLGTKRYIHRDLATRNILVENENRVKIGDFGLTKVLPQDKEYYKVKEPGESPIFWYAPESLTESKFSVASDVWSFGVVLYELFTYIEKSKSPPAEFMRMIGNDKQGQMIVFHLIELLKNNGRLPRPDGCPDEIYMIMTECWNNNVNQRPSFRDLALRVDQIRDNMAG

`O=C(Nc1nc2cccc([C@@H]3CCC4(CCN(C(=O)[C@@H]5CC5(F)F)CC4)C3)n2n1)C1CC1` (single isomer, unassigned) [Compound 6-8]: the IC50 in assay [1] is 1920 nM; in assay [2], greater than 10000 nM; in assay [3], 381 nM; in assay [4] it was 570 nM.

For `N#CCN1CC2(CCC(c3cccc4nc(NC(=O)[C@H]5CC5(F)F)nn34)CC2)C1` [Compound 8-9], the IC50 in assay [1] was 3670 nM; in assay [2] it was greater than 10000 nM; in assay [3], 52 nM; in assay [4], 1330 nM.

Consider `O=C(Nc1nc2cccc(C3CCC4(CC3)CN(C(=O)[C@H]3CC3(F)F)C4)n2n1)[C@H]1CC1(F)F` [Compound 8-6], for which the IC50 was 110 nM in assay [1], 7640 nM in assay [2], 14 nM in assay [3] and 127 nM in assay [4].

On to `O=C(Nc1nc2cccc(C3CCC4(CC3)CCN(C(=O)C3CC3(F)F)C4)n2n1)C1CC1` (single isomer, unassigned) [Compound 5-8], for which the concentration for half-maximal inhibition (IC50) stood at 789 nM in assay [1], 7350 nM in assay [2], 75 nM in assay [3] and 692 nM in assay [4].

For the molecule `O=C(Nc1nc2cccc([C@H]3CCC4(CCN(C(=O)[C@@H]5CC5(F)F)CC4)C3)n2n1)C1CC1` (single isomer, unassigned) [Compound 6-7], the IC50 in assay [1] was found to be 998 nM; in assay [2] it was 9390 nM; in assay [3], 63 nM; in assay [4], 829 nM.

As to `O=C(Nc1nc2cccc([C@H]3CCC4(C3)CN(C(=O)[C@@H]3CC3(F)F)C4)n2n1)C1CC1` (single isomer, unassigned) [Compound 7-7], the half-inhibitory concentration (IC50) was greater than 10000 nM in assay [2], 63 nM in assay [3] and 830 nM in assay [4].

Take `N#CCN1CC2(CCC(c3cccc4nc(NC(=O)[C@@H]5CC5(F)F)nn34)CC2)C1` [Compound 9-6]: the 50% inhibitory concentration (IC50) in assay [1] was 1170 nM; in assay [2], greater than 10000 nM; in assay [3], 432 nM; in assay [4] it was 1390 nM.

`O=C(Nc1nc2cccc(C3CCC4(CC3)CCN(C(=O)C3CC3(F)F)C4)n2n1)C1CC1` (single isomer, unassigned) [Compound 5-7]: the half-maximal inhibitory concentration (IC50) in assay [1] turned out to be 324 nM; in assay [2] it was 5760 nM; in assay [3] it was 31 nM; in assay [4], 67 nM.

On to `N#CCC(=O)N1CC2(CCC(F)(c3cccc4nc(NC(=O)C5CC5)nn34)CC2)C1` [Compound 4-6], for which the IC50 came out at 2010 nM in assay [1], 8450 nM in assay [2], 170 nM in assay [3] and 307 nM in assay [4].

On to `O=C(Nc1nc2cccc([C@@H]3CCC4(C3)CN(C(=O)[C@@H]3CC3(F)F)C4)n2n1)C1CC1` [Compound 7-8], for which the IC50 is greater than 10000 nM in assay [2], 176 nM in assay [3] and 404 nM in assay [4].
